Columns and labels:
HIV-RF = experiment: In-vitro anti-viral test on C81-66 cells infected with HIV-RF (wells positive for HIV p24); assay type: cell-based; settings: no pretreatment, number of wells positive for HIV p24 out of two replicates
Excerpt: NOTE: • 1. The results are expressed as the number of wells positive for HIV p24 (out of the two replicates at each multiplicity of infection). Thus, 2 means that both wells contained viral antigen, while 0 means no virus was present. • 2. Pretreatment means that the antibodies to Human Alpha feto protein were present during HIV virus absorption as well as afterwards. • 3. An error in diluting the antibodies was made, so that following the first three concentrations (6,2, and 0.6 percent), an extra 10 fold dilution was made, so that the next dilution was 0.02% rather than 0.2%.

HIV gp120 peptide = molecular target: T1, HIV gp120 peptide (Human immunodeficiency virus type 1 group M subtype B, UniProt P04578); experiment: Binding of 3H arachidonic acid (C20:4) to peptide, free ligand removed with Lipidex 1000
T1 construct: Peptide gp120, 1 mg in 180 µl of an aqueous solution of acetic acid and 20 µl acetonitrile
Protocol: (§1) Solubilisation of the peptides: • : Peptide gp120, 1 mg in 180 µl of an aqueous solution of acetic acid and 20 µl acetonitrile • : Peptide p24, 1 mg in 200 µl of an aqueous solution of acetic acid
(§2) Incubation of 50 […] or 100 µg of each peptide or 10 µg of pure rat Alpha Feto Protein with 270.000 DPM ^3H C20:4 (SA 198 Ci/mmol), overnight at 4° C, in 0.5 ml of 10 mM potassium phosphate buffer 10mM pH 7.4.
(§3) Binding of Arachidonic Acid to peptides or protein measured after separation of the free ligand from the bound one using Lipidex 1000 (100 µl Lipidex solution 10 minutes at 4°C. The free ligand is bound to Lipidex 1000, the bound ligand to peptides and proteins remains in the supernatant after centrifugation.

HIV p24 peptide = molecular target: T2, HIV p24 peptide (Human immunodeficiency virus type 1 group M subtype B, UniProt P04591); experiment: as above; settings: 270.000 DPM 3H C20:4, overnight at 4° C, 10 mM potassium phosphate buffer pH 7.4
T2 construct: Peptide p24, 1 mg in 200 µl of an aqueous solution of acetic acid
Protocol: as §1, §2, §3

[1] = molecular target: T3, pure rat Alpha Feto Protein (Rattus norvegicus, UniProt P02773); experiment: Binding of 3H arachidonic acid (C20:4) to protein, free ligand removed with Lipidex 1000; settings: 10 µg pure rat AFP; 270.000 DPM 3H C20:4, overnight at 4° C, 10 mM potassium phosphate buffer pH 7.4
T3 sequence (P02773 25-611): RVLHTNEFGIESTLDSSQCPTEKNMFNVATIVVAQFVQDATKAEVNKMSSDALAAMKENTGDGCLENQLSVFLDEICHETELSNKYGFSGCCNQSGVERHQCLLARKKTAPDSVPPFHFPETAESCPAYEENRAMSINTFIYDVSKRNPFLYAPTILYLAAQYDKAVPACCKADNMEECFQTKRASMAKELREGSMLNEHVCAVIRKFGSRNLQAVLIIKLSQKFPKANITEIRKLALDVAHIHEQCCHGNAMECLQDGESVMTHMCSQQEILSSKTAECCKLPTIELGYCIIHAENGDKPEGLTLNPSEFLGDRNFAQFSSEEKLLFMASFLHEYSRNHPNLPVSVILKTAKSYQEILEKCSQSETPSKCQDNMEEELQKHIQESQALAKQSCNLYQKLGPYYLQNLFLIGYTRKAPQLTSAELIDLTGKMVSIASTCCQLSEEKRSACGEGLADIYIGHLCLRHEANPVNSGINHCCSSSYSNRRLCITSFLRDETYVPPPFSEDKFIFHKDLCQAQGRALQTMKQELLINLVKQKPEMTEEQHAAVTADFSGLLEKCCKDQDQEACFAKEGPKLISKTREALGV
Protocol: as §2, §3

[2] = Solubility of 3H C20:4 before and after addition of peptides or protein; assay type: physicochemical
Protocol: as §2
Solubility of ^3H C20:4 tested before and after addition of peptides or protein: […]

T1 sequence (P04578 247-267): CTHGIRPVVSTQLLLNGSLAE

## Cc1cn([C@H]2C[C@H](N=[N+]=[N-])[C@@H](CO)O2)c(=O)[nH]c1=O [AZT]
HIV-RF; 10 μM
  Virus Replication at a.m.i. (log) of: -1: 2
  Virus Replication at a.m.i. (log) of: -2: 1
  Virus Replication at a.m.i. (log) of: -3: 0
  Virus Replication at a.m.i. (log) of: -4: 0
  Virus Replication at a.m.i. (log) of: -5: 0
  Virus Replication at a.m.i. (log) of: -6: 0
HIV-RF; Conc. 0.01 (μM)
  Virus Replication at a.m.i. (log) of: -1: 2
  Virus Replication at a.m.i. (log) of: -2: 2
  Virus Replication at a.m.i. (log) of: -3: 2
  Virus Replication at a.m.i. (log) of: -4: 2
  Virus Replication at a.m.i. (log) of: -5: 1
  Virus Replication at a.m.i. (log) of: -6: 0
HIV-RF; Conc. 0.1 (μM)
  Virus Replication at a.m.i. (log) of: -1: 2
  Virus Replication at a.m.i. (log) of: -2: 2
  Virus Replication at a.m.i. (log) of: -3: 2
  Virus Replication at a.m.i. (log) of: -4: 2
  Virus Replication at a.m.i. (log) of: -5: 0
  Virus Replication at a.m.i. (log) of: -6: 0
HIV-RF; Conc. 1 (μM)
  Virus Replication at a.m.i. (log) of: -1: 2
  Virus Replication at a.m.i. (log) of: -2: 2
  Virus Replication at a.m.i. (log) of: -3: 2
  Virus Replication at a.m.i. (log) of: -4: 1
  Virus Replication at a.m.i. (log) of: -5: 2
  Virus Replication at a.m.i. (log) of: -6: 2

## CCCCC/C=C\C/C=C\C/C=C\C/C=C\CCCC(=O)O [^3H C20:4, Arachidonic Acid]
HIV gp120 peptide; 270.000 DPM 3H C20:4, overnight at 4° C, 10 mM potassium phosphate buffer pH 7.4
  Binding of ^3H C20:4 to peptides or protein after Lipidex 1000 treatment: 1.2 x 10^-6 DPM/mg
HIV gp120 peptide; conclusion in words
  binding of C20:4: clear binding
HIV p24 peptide
  Binding of ^3H C20:4 to peptides or protein after Lipidex 1000 treatment: 0.8 x 10^-6 DPM/mg
[1]
  Binding of ^3H C20:4 to peptides or protein after Lipidex 1000 treatment: 14.1 x 10^-6 DPM/mg
[2]; in presence of 10 µg pure rat AFP
  Solubility of ^3H C20:4: 100%
[2]; in presence of gp120: 50µg
  Solubility of ^3H C20:4: 65%
[2]; in presence of gp120: 100µg
  Solubility of ^3H C20:4: 90%
[2]; in presence of p24 50µg
  Solubility of ^3H C20:4: 23%
[2]; in presence of p24 100µg
  Solubility of ^3H C20:4: 30%
[2]; in the presence of p24 peptide, conclusion in words
  insolubility of the Arachidonic Acid: important insolubility
[2]; without peptide or protein
  Solubility of ^3H C20:4: 70%

Reference: EP0468441A1, “Use of particular compounds for manufacture of pharmaceutical formulations for metabolic treatments” (Prendergast, Patrick Thomas, priority 1990, dated 1992)
